Reference: publication PMC6747274, “Multifunctional Peptides from Spanish Dry-Cured Pork Ham: Endothelial Responses and Molecular Modeling Studies” (International Journal of Molecular Sciences, 2019)
“And” between values parts separate entries of the source, which are not always exact repeats. Equal entries are not always repeated. “Also recorded” adds a separate entry of the source. Where no end group is shown, it is not given here.

What was measured:
[1] = test system: ICAM-1 surface expression, EA.hy926 cells; assay: ICAM-1 surface expression by flow cytometry (MFI); format: cell-based, human
Experimental: (§1) EA.hy926 cells, the hybrid human umbilical vein endothelial cell line, were obtained from the American Type Culture Collection (ATCC® CRL2922™, Rockville, MD, USA). Cells were cultured in high glucose Dulbecco’s Modified Eagle’s Medium (DMEM), containing 10% heat-inactivated fetal bovine serum (FBS, Biowest, Riverside, CA, USA) and 50 U/mL of penicillin and 50 µg/mL streptomycin (Sigma Aldrich Chemical Co., Saint Louis, MO, USA). Cells were grown in 5% CO2 in a humidified air incubator at 37 °C. Subculture was performed when 90% confluence was reached.
(§2) EA.hy926 were seeded in six-well plates at 0.25 × 10^6 cells/well in DMEM supplemented with 5% FBS. Cells were treated with 300 µM of each peptide for 16 h. Then, 100 ng/mL TNF-α or 300 µM H2O2 were added for an additional 6 h or 24 h, respectively.
To measure adhesion molecule content in human endothelial cells by flow cytometry, the cell monolayer was detached and fixed before immunofluorescence labelling. The following antibodies were used per sample: 20 µL anti-ICAM-1/CD54-phycoerythrin (PE) (clone HA58, BD Biosciences, Franklin Lakes, NJ, USA) and 5 µL anti-VCAM-1/CD106-PerCP-Cy5.5 (clone 51–10C9; BD Biosciences, San Jose, CA, USA), according to the manufacturer’s protocol. Stained cells (10,000 events) were examined by flow cytometry (FACS Calibur, Becton Dickinson, Mountain View, CA, USA) in a simultaneous two-color analysis with FL2 (PE) and FL3 (PerCP-Cy5.5) channels. Markers were set according to the negative controls to quantify the percentage of positively stained cells. Mean Fluorescence Intensity (MFI) was calculated for each antigen (MFI of total stained cells-MFI of negative control cells).

[2] = test system: VCAM-1 mRNA, EA.hy926 cells; assay: VCAM-1 mRNA expression by RT-PCR in EA.hy926 cells; format: cell-based, human; conditions: 100 ng/mL TNF-α alone, 6 h; p < 0.05
Experimental: as §1, §2
(§3) Total RNA was extracted from EA.hy926 cells using 300 µL Trisure™ (Bioline, Taunton, MA, USA) reagent and Direct-zol™ RNA MiniPrep (Zymo Research Irvine, Irvine, CA, USA) according to the manufacturer’s protocol. Total RNA was reverse-transcribed into complementary DNA (Sensifast cDNATM Synthesis kit, Bioline, Taunton, MA, USA). The mRNA levels of the target genes were quantified by RT-PCR using SensiFAST SYBER Hi-ROX Kit (Bioline, Taunton, MA, USA) with StepOnePlus Real-Time PCR System (Applied Biosystems, Foster City, CA, USA). Briefly, 5 µL of 1:5 diluted cDNA was added to the qPCR reaction containing 10 μL 2X SensiFAST Mix and 400 nM of each primer in a total volume of 20 μL.
(§4) Specific and validated primers for human glyceraldehyde-3-phosphate dehydrogenase (GADPH), intercellular adhesion marker-1 (ICAM-1), vascular cell adhesion marker-1 (VCAM-1), endothelial nitric oxide synthase (eNOS), interleukin 6 (IL-6), catalase, SOD (Super Oxide Dismutase), NADPH (Nicotinamide Adenine Dinucleotide Phosphate oxidase) and Bax (proapoptosis regulator) genes were used (Sigma-Aldrich Chemical Co., Saint Louis, MO, USA). […]
(§5) The relative quantification of gene expression was determined by the comparative fold change […] method. […]

[3] = test system: VCAM-1 surface expression, EA.hy926 cells; assay: VCAM-1 surface expression by flow cytometry; format: cell-based, human; conditions: 100 ng/mL TNF-α alone
Experimental: as §1, §2
To measure adhesion molecule content in human endothelial cells by flow cytometry, the cell monolayer was detached and fixed before immunofluorescence labelling. […] Markers were set according to the negative controls to quantify the percentage of positively stained cells. Mean Fluorescence Intensity (MFI) was calculated for each antigen (MFI of total stained cells-MFI of negative control cells).

[4] = test system: IL-6 mRNA, EA.hy926 cells; assay: IL-6 mRNA expression by RT-PCR in EA.hy926 cells; format: cell-based, human
Experimental: as §1, §2
(§6) Total RNA was extracted from EA.hy926 cells using 300 µL Trisure™ (Bioline, Taunton, MA, USA) reagent and Direct-zol™ RNA MiniPrep (Zymo Research Irvine, Irvine, CA, USA) according to the manufacturer’s protocol. […] The mRNA levels of the target genes were quantified by RT-PCR using SensiFAST SYBER Hi-ROX Kit (Bioline, Taunton, MA, USA) with StepOnePlus Real-Time PCR System (Applied Biosystems, Foster City, CA, USA). […]
as §5

[5] = test system: eNOS mRNA, EA.hy926 cells; assay: eNOS mRNA expression by RT-PCR in EA.hy926 cells; format: cell-based, human
Experimental: as §1, §2, §3, §4, §5

[6] = test system: ICAM-1 mRNA, EA.hy926 cells; assay: ICAM-1 mRNA expression by RT-PCR in EA.hy926 cells; format: cell-based, human; conditions: 100 ng/mL TNF-α alone, 6 h; p < 0.05
Experimental: as §1, §2, §6, §5

[7] = test system: ICAM-1 protein, EA.hy926 cells; assay: Intracellular ICAM-1 protein by western blot; format: cell-based, human; conditions: 100 ng/mL TNF-α alone
Experimental: as §2
Supplementary Material and Methods
1.1. Human ACE Inhibitio n Assa y
Before transfection, the endothelial ACE expressio n level was very low and the p roduct of the enzymatic reaction undete ctable, and so a recombinant construct e ncodi ng the Myc-Tag fused to the ACE ge ne was used. T o overexpress the ACE enzyme, EA.hy926 cel ls were seeded in 24-well plates at 80,000 cells/well and transiently transfec ted with a human Ace ORF mammali an expression plasmid (Sinobiological, Beijing, China) using trans-it X2 reagent ( Myrus®, Madi son, […]
Wisconsin, USA). […] The effi ciency of […]
transfecti on was checked by immunofluorescence. Briefly, 48 h post-transfection, cells were fixed with 4% paraformaldehyd e in culture medi um for 15 min at room temperatur e, blocked with 1% bo vine seru m albumin (BSA) in phosph ate buffer for 30 min followed by 0.2% sapo nin for 30 min to permeabil ize the membr ane. […]
The mRNA level s of the target genes (ICAM-1, VCAM-1, IL-6, eNOS, SOD, catal ase, NADPH, BAX) were quantified by RT-PCR using Se nsiFAST SYBER Hi-ROX Kit (Bioline, Taunton, USA) with StepOnePlus Real-Time PCR Sy stem (Appl ied Bi osystems, Foster City, CA, USA) using speci fi c and vali dated pri mers (Si gma-Al drich Chemical Co., Saint Louis, MO, USA).
The tetr azolium assay (MTT) was used to estimate the cel l viability in the presence of synthetic pepti des (up to 600 µM) and 300 µM H2O2. […] The formazan crystals formed in the intact cel ls were dissol ved in 200 µL dimethyl sulfoxide (DMSO) for 30 min and the absorbance was measured in a micro plate reader at 570 nm and 620 nm of reference. Results wer e calculated as cel l viability (%) = average optic density (OD) of wells/ave rage OD of control wells. […]

human ACE = human ACE (Homo sapiens, UniProt P12821); assay: Human ACE inhibition assay (lysate of ACE-transfected EA.hy926 cells, HHL substrate, HPLC)
human ACE, sequence (P12821 30-1306): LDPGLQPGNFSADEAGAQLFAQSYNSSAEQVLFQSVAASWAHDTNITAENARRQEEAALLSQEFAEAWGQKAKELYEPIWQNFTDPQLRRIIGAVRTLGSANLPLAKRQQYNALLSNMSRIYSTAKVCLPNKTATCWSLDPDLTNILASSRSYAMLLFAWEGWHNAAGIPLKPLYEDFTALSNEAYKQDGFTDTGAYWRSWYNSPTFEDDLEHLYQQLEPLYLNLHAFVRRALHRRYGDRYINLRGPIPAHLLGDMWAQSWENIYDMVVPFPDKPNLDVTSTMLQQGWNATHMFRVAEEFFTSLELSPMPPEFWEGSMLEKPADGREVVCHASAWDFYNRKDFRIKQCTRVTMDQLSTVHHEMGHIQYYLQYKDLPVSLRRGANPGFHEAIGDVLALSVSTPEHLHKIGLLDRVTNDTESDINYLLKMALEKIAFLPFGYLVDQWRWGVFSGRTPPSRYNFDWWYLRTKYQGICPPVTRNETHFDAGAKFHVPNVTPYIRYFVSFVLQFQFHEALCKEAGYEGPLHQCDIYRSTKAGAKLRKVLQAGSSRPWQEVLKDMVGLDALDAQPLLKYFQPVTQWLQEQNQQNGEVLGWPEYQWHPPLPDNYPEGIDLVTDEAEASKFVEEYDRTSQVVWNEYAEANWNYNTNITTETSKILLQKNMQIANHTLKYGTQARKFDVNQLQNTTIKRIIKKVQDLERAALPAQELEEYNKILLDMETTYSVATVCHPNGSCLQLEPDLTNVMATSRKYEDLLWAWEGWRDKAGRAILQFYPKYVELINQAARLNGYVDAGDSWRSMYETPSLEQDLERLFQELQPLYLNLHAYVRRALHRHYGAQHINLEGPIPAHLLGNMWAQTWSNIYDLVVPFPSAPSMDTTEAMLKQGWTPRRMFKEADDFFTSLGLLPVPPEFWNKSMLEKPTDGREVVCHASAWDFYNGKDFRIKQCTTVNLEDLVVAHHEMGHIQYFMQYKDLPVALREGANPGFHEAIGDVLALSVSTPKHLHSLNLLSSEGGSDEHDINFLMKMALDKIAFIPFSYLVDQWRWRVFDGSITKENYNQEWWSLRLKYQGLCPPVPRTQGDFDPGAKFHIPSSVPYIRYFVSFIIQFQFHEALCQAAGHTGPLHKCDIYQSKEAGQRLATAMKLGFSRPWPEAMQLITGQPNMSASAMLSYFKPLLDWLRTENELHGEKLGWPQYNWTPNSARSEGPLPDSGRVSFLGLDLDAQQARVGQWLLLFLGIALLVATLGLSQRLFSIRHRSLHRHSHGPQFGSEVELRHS

BAX mRNA, EA.hy926 cells = assay: BAX mRNA expression by RT-PCR in oxidative conditions; format: cell-based, human; conditions: 300 µM H2O2 alone, 24 h; p = 0.02
Experimental: as §2
as §3, with “μL. […]” for “μL.”
as §5

EA.hy926 cells = assay: Annexin V / propidium iodide apoptosis and necrosis by FACS; format: cell-based, human; conditions: 300 µM H2O2 alone, three independent experiments, mean ± SD
Experimental: as §2
ApoScreen Annexin V Apoptosis Kit-FITC (Southern Biotech, Birmingham, AL, USA) was used to detect the apoptosis rate. After the co-incubation of synthetic peptides and 300 µM H2O2, 0.4 × 10^6 cells were detached and washed in cold PBS, then resuspended in 100 µL Annexin V binding buffer and treated following the manufacturer’s protocol. Annexin V-fluorescein isothiocyanate (FITC) binding was assessed in FL1 channel simultaneously with propidium iodide (FL2 channel). This test discriminates among intact cells (FITC−/PI−), apoptotic cells (FITC+/PI−), and necrotic cells (FITC+/PI+). Assays were performed in triplicate (Table S1).

[8] = test system: protein carbonylation, EA.hy926 cells; assay: Protein carbonylation (Oxyblot immunoblotting); format: cell-based, human; conditions: 300 µM H2O2 alone, 30 min
Experimental: Protein carbonyl content is the most general and well-used biomarker of severe oxidative protein damage. Cel ls were treated with synthetic pepti des for 16 h before adding 300 µM H2O2 and leaving for additional 30 min. Protein carbonyl groups level s wer e determined by immuno blotting using the Oxyblot Protein Oxidation Detecti on Kit (Millipore Merck, Temecul a, CA, USA) according to the manufacturer’s protocol. PVDF membranes were blocked with 1% BSA in PBS–0.05% Tween 20 (v/v) (PBS-T) for 1 h at room temperature. The blots were incubated overnight at 20 °C with the polyclonal antibody. Subsequently, blots were washed (3–5 times) with PBS-T and incubated with goat anti-rabbit IgG/HRP c onjugate (1∶300 dilution in PBS/BSA) (Sigma-Al drich Chemical Co., Saint Louis, MO, USA) for 1 h at room temperature. […] In this condition, no signal was detected in the PVDF membr anes (data no t shown). The e mitted chemiluminescent signals wer e detected using a di gital imaging system (Im ageQuant LAS500, Thermo FisherScientific Inc., Rockford, IL, USA) after automatic exposition time. Quantitation of the densitometry plots for chemiluminescence detecti on was c arried out using ImageJ software for the analysis of 1D gels. Peaks were drawn from the di stinct western-blot bands, the area were calculated and normalized to co ntrol conditions.

[9] = test system: inflammatory markers (IL-6 and eNOS); conditions: spontaneous hypertensive rats, DNA microarray; cited from earlier work
From the text: In fact, multifunctional peptides interfere with more than one biological pathway, such as NO production, oxidative stress, and inflammation. […] Our interest in the use of an in vitro model of endothelial dysfunction was to further understand the reg ...

[10] = 100 ng/mL TNF-α alone, 6 h, p < 0.05

## TNF-α
[1]; 100 ng/mL TNF-α alone, six independent experiments, mean ± SD, p = 0.0003 vs control (71.36 ± 8.31)
  ICAM-1 MFI: 1271.91 ± 158.54
[1]; TNF-α alone vs control, p = 0.0003
  ICAM-1 MFI on cell surface (in words): increase
[2]
  VCAM-1 mRNA expression vs control: increased
[3]
  VCAM-1 surface staining after TNF-α: undetected; also recorded: hardly detectable
[4]; [10]
  IL-6 mRNA expression vs control: increased
[5]; [10]
  eNOS mRNA expression vs control: decreased
[6]
  ICAM-1 mRNA expression vs control: increased
[7]
  expression of 82–85 kDa protein corresponding to ICAM-1 (western blot): induced

## KPVAAP [BP1]
Human ACE
  IC50: 59.2 ± 3.8 µM

## OO [H2O2, reference compound]
BAX mRNA, EA.hy926 cells
  BAX expression increase: 1.5 fold
EA.hy926 cells; p = 0.01 vs control (1.45 ± 0.24)
  Necrosis (AnV+/PI+), % cells: 18.56 ± 3.38% and 18%
EA.hy926 cells; p = 0.03 vs control (0.90 ± 0.36)
  Apoptosis (AnV+/PI-), % cells: 10.37 ± 1.33% and 10%
[4]; 300 µM H2O2 alone, 24 h, p = 0.001
  IL-6 mRNA expression upregulation: 1.84 fold
[5]; 300 µM H2O2 alone, 24 h, p = 0.01
  eNOS mRNA expression increase: 3.3 fold
[8]
  protein carbonylation level: significantly increased

## KPGRP [BP3]
Human ACE
  IC50: 486 ± 43.5 µM

## Ile-Pro-Pro [IPP, milk-derived peptide]
[9]
  inflammatory markers (IL-6 and eNOS): decrease in inflammatory markers (IL-6 and eNOS)

## Val-Pro-Pro [VPP, milk-derived peptide]
[9]
  inflammatory markers (IL-6 and eNOS): decrease in inflammatory markers (IL-6 and eNOS)
